# Target: ERE dsDNA (estrogen response element)
# Assay: Thiazole orange total fluorescence titration with unlabeled DNA
# Settings: TO fluorescence ex 510 nm, em 535 nm; read-out: binding constant (dissociation constant)
# Description: Fluorescence Measurements. Steady state fluorescence anisotropy measurements were carried out in 20 mM Tris (pH 7.9), 30 mM NaCl, 20 mM KCl, 1 mM MgCl2, and 5% glycerol. […] DNA samples used were either the non-labeled sequences shown in FIG. 2 or a fluorescein labeled duplex with a sequence matching GRE2 (FIG. 2).
# For non-labeled DNA titrations (measuring the fluorescence from thiazole orange), the excitation wavelength was 510 nm and the emission was recorded at 535 nm with a 1.0 nm slit width. Glass cuvettes were used with a 0.3 cm path length. Titrations were performed using a constant concentration of unconjugated thiazole orange (TO) or TO-ZF and titrated with DNA as indicated.
# Total fluorescence data were collected in parallel to the anisotropy measurements and were calculated from raw data as the fluorescence intensity in the vertical plane plus two times the fluorescence intensity of the horizontal plane, (TF=Ivv+2Ivh). These values were used to determine the percent of the maximum fluorescence for each point along the titration and fit to equation 2. [formula]
# In equation 2, f corresponds to the fraction of TO-ZF conjugate bound at a given concentration of DNA. The concentration given as [TO(ZF)]T corresponds to either the unconjugated thiazole orange or the TOZF conjugate as indicated and [GRE]T is the total concentration of GRE binding sites. The parameter of the fit was the dissociation constant (Kd).
# Titrations of the TO fluorescence upon binding of TO-ZF to unlabeled DNA were measured for the dsDNA sequences shown in FIG. 2. TO fluorescence was excited at 510 nm and collected at 535 nm. The GRE1 DNA sequence contains the same binding site as does the GRE2 DNA sequence used above, however, the GRE3 sequence contains a single mutation of the guanine in the native GRE target sequence (5′-TGTTCT-3′) to an adenine. The GRE2 and GRE3 sequences were generated for use in the photocleavage measurements described below. Finally, the GRE4 and ERE recognition sequences are from the non-specific GRE halfsite and the estrogen response element (ERE), respectively. M. A. L. Eriksson, J. Molec. Biol. 253:453-472 (1995). These are used in conjunction with the other sequences to determine the sensitivity of this probe. The DNA is not fluorescently labeled in these measurements. Therefore, the fluorescence is exclusively from thiazole orange molecules intercalated into dsDNA.
# Fitting the binding curves to a two-state binding model (see Materials and Methods) results in a dissociation constant of 25 nM for GRE1 and GRE2, which contain the native GRE. Titrations of the modified GRE sequences and the ERE sequence yielded binding constants of 57 nM, 220 nM and 810 nM for the TO-ZF conjugate bound to GRE3, GRE4, and ERE, respectively.
substance,measurement,value
"TO-ZF: 29 amino acid single zinc finger from residues 438-465 of glucocorticoid receptor, thiazole orange coupled to a lysine ε-amine",Kd,810 nM

# Reference: patent US6348317B1, “Fluorescent and DNA cleavage properties of peptide/dye conjugates” (The Arizona Board of Regents, priority 1999, dated 2002)
